Experimental data: patent publication US20250099545A1, “COMPOSITIONS, SYSTEMS, AND METHODS FOR TREATING CANCER USING TUMOR TREATING FIELDS WITH IMMUNE CHECKPOINT INHIBITORS AND MHC CLASS I ACTIVATORS” (Novocure GmbH, priority 2023, published 2025)
Where two headings read alike, the source gives them in different places.

Assays:
[1] = tested on: MHC Class I expression in A2780 human ovarian cancer cells; test: MHC Class I expression in A2780 cells after alpelisib, TTFields or both; format: cell-based; conditions: TTFields (1.75V/cm and 200 kHz) plus 250 nM alpelisib for 72 h, then 72 h without drug under TTFields, vs untreated control and single treatments
Procedure: A2780 human ovarian cancer cells (20,000 cells/well) were incubated for 144 h with the following conditions: Control untreated; 250 nM alpelisib (PI3K inhibitor) for 72 h—media containing the drug was removed, and fresh media without alpelisib was added for an additional 72 h incubation; TTFields (1.75V/cm and 200 kHz); TTFields plus 250 nM alpelisib for 72 h—media containing the drug was removed, and fresh media without alpelisib was added for an additional 72 h incubation under TTFields condition.

[2] = tested on: MHC Class I expression in Panc02-luc mouse pancreatic cells; conditions: TTFields (1.75V/cm and 150 kHz) plus 10 μM chloroquine, 72 h, vs untreated control
Procedure: Panc02-luc mouse pancreatic cells (10,000 cells/well) were incubated for 72 h with the following conditions: Control untreated, 10 μM chloroquine (autophagy inhibitor), TTFields (1.75V/cm and 150 kHz), and TTFields plus 10 μM chloroquine.
In FIG. 3, MHC Class I expression was evaluated in Panc02-luc mouse pancreatic cells (an orthotopic model of pancreatic cancer) following chloroquine (an autophagy inhibitor) treatment alone, TTFields application alone, and the combination of TTFields application with concomitant chloroquine treatment.

Question: For Cc1nc(NC(=O)N2CCC[C@H]2C(N)=O)sc1-c1ccnc(C(C)(C)C(F)(F)F)c1 [alpelisib], which “MHC Class I expression” value [1] is on record?
Answer: Its value is “greater than in the untreated control group as well as in the single treatment groups”.

Question: What about the “MHC Class I expression” value ([1]; listed as Alpelisib) of the same compound?
Answer: Its value is “increased with concomitant Alpelisib treatment”.

Question: Which “MHC Class I expression” value [2] does the source give for CCN(CC)CCCC(C)Nc1ccnc2cc(Cl)ccc12 (stereo not shown) [chloroquine] here?
Answer: The value was “increased significantly above the untreated cells”.

Question: And the “MHC Class I expression” value ([2]; listed as Chloroquine)?
Answer: The value was “increased with concomitant Chloroquine treatment”.
